Key:
Parental 293 = experiment: MTT cytotoxicity assay, parental 293 cells; format: cell-based; details: percentage of untreated control cells
Description: (§1) This assay evaluates the cytotoxic effects of the novel isoquinolone compounds based on the cellular viability under chronic treatments. Viable cells but not dead cells can turn the substrate into a colored product, which yields higher absorbance. […] A low percentage indicates low cytoviability (or high cytotoxicity).
(§2) 5. Cytotoxicity Test Using MTT Assay
(§3) Cells were seeded into clear 96-well plate at an appropriate density in 100 μl growth medium and were allowed to grow overnight. The novel isoquinolone compounds were diluted to desired concentrations using fresh growth medium, and these dilutions were used to replace the growth media in each well. After incubating for 24-96 h, 10 μl of the MTT labeling reagent (Roche) was added to each well and the cells were incubated in a CO2 incubator for 4 h. 100 μl solubilization buffer was then added into each well and incubated overnight for complete solubilization of the purple formazan crystals. […] Each condition was performed in triplicate in every experiment and the results were expressed as % of blank control±SD.

MT2 receptor [1] = target: T1, MT2 receptor (Homo sapiens, UniProt P49286); experiment: Competitive [3H]melatonin binding assay, MT2; set-up: expressed in transfected cells; details: displacement of [3H]melatonin
T1 sequence (P49286 1-362): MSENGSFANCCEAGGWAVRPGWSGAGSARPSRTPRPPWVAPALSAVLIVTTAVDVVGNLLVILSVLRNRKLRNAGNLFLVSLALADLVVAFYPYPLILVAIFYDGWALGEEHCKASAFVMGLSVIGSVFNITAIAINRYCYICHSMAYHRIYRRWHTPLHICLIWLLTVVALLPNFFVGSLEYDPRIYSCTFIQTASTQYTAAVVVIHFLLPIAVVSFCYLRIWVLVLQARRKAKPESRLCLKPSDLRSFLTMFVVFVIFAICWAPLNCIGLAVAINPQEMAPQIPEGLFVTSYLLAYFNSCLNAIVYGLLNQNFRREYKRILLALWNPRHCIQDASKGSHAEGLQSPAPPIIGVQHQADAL
Description: (§4) Competitive ligand binding assays were performed to examine the receptor binding characteristics of the novel isoquinolone compounds. The assay measures the ability of the novel isoquinolone compounds to bind and displace the radiolabelled endogenous ligand, [^3H]melatonin. Increasing concentrations of the novel compounds are added to displace the [^3H]melatonin-bound to MT1 or MT2 receptor-expressing cells.
(§5) 4. Competitive Binding Assay
(§6) The ability of compounds to bind to MT1 and/or MT2 receptors is determined using radioligand binding assays. […] 48 hours following transfection, cells are harvested in binding buffer (50 mM Tris-HCl, 2 mM MgCl2, 1 mM EDTA, pH 7.4). 100,000 cells are incubated with 1 nM [^3H] melatonin (specific activity: 83 Ci/mmol; GE Healthcare) and appropriate concentrations (0.1 nM to 1 μM) of unlabelled ligands in a total volume of 100 μl in 96-well plates (PerkinElmer Life And Analytical Sciences, Inc., Boston, Mass.) for 2 hours at room temperature. Reactions are terminated by rapid filtration through a 96-well cell harvester onto 96-well GF/C filter mats. Filters are washed with 500 μl of ice-cold binding buffer, dried and sealed in a polyethylene bag with 3.5 ml of scintillation fluid and counted for tritium in a Microbeta Jet scintillation counter. […] Data are analyzed by nonlinear least-squares regression using GraphPad Prism 3.02.

MT1 receptor [2] = target: T2, MT1 receptor (Homo sapiens, UniProt P48039); experiment: Competitive [3H]melatonin binding assay, MT1; set-up: expressed in transfected cells
Description: as §4, §5, §6

MT2/293 = experiment: MTT cytotoxicity assay, MT2/293 cells; format: cell-based; details: percentage of untreated control cells
Description: as §1, §2, §3

MT2 receptor [3] = target: T1, MT2 receptor; experiment: cAMP assay, MT2; format: cell-based; set-up: expressed in transfected cells; host or cells: COS-7 (monkey kidney fibroblast); details: inhibition of forskolin-stimulated cAMP production; MT2-expressing cells
MT1 receptor [4] = target: T2, MT1 receptor; experiment: cAMP assay, MT1; format: cell-based; set-up: expressed in transfected cells; host or cells: COS-7 (monkey kidney fibroblast); details: inhibition of forskolin-stimulated cAMP production; MT1-expressing cells
MT2 receptor [5] = target: T1, MT2 receptor; experiment: CRE-Luc (luciferase reporter gene) assay, MT2; format: cell-based; set-up: expressed in transfected cells; details: HEK 293-pCREluc cells with MT2; inhibition of forskolin response
Description: (§7) The luciferase reporter gene assay offers another way to measure melatonin receptor activation. Cells expressing cAMP-responsive element-driven luciferase reporter gene (293-pCREluc) and either the MT1 or MT2 receptor are treated with forskolin (a substance which stimulates cAMP production as well as the subsequent luciferase gene expression) alone or with a novel isoquinolone compound. As melatonin receptor activation inhibits cAMP production, any suppression in the expression of luciferase leads to a decrease in enzymatic activities and a reduction in the amount of luminescence signal generated.
(§8) The luciferase assay, a reporter gene assay, was performed to confirm the ability of the invention to activate the melatonin receptors. Prior to the assay, HEK (human embryonic kidney) 293 cells are stably transfected with cAMP-responsive element-driven luciferase reporter gene (293-pCREluc) and cDNAs encoding MT1 or MT2 receptors. The cells are then exposed to the novel isoquinolone compounds, after which the substrate luciferin is added and the resulting luminescence measured.
(§9) Prior to the assay human embryonic kidney (HEK) 293 cells (CRL-1573, ATCC) is maintained at 37° C. in minimum essential medium (MEM) supplemented with 10% fetal bovine serum (FBS), 100 units/ml penicillin and 100 μg/ml streptomycin in a humidified atmosphere containing 5% CO2. Human embryonic kidney 293 cells stably transfected with cAMP-responsive element-driven luciferase reporter gene (293-pCREluc) are established and maintained in growth medium supplemented with 300 μg/ml G418 sulphate.
(§10) For luciferase assays, HEK-293 cells stably expressing pCRE-luciferase are seeded at a density of 15,000 cells/well into 96 well plates. Transfection is carried out using Lipofectamine Plus® reagent at 0.2 μl of both Plus and lipofectamine reagents with 50 ng cDNAs encoding MT1 or MT2 receptors per well. After a 3 hour transfection period at 37° C., 50 μl of DMEM with 20% fetal calf serum (FCS) is added into the wells and the plate is incubated at 37° C. for 48 h prior to 24 hour serum starvation. […]
(§11) Cells are harvested by replacing medium in the well by 50 μl luciferase lysis buffer. The Berthold microplate luminometer is maintained at 25° C. throughout the assay. Injector M connected to an empty tube and P connected to the drug tube are set to inject 25 μl of luciferin into appropriate wells. A 1.6 second delay time followed by a 1 second measuring time period is assigned to injector M, whereas injector P is measured for 10 seconds after luciferase substrate is introduced into the well. Results are expressed as relative luminescent units (RLU). Where indicated, agonist-induced activity is expressed as a percentage of the RLU obtained with forskolin.

MT1/293 = experiment: MTT cytotoxicity assay, MT1/293 cells; format: cell-based; details: percentage of untreated control cells
Description: as §1, §2, §3

MT1 receptor [6] = target: T2, MT1 receptor; experiment: CRE-Luc (luciferase reporter gene) assay, MT1; format: cell-based; set-up: expressed in transfected cells; details: HEK 293-pCREluc cells with MT1; inhibition of forskolin response
Description: as §7, §8, §9, §10, §11

T2 sequence (P48039 whole entry): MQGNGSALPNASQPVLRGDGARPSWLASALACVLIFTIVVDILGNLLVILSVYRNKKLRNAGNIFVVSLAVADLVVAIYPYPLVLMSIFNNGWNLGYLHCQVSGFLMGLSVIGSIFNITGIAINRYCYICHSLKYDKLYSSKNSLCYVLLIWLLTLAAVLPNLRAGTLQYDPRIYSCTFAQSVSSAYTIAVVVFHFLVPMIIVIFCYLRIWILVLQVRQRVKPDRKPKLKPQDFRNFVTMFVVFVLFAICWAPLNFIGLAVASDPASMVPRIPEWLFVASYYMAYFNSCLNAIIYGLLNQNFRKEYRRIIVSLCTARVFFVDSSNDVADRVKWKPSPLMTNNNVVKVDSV

Structure (SMILES): COc1ccc2[nH]c(I)c(CCNC(C)=O)c2c1 [Compound 2-IMT, 2-iodomelatonin, reference compound]
- MTT Assay Parental 293 % Viability ± SEM (Parental 293): 105.9 ± 4.3%
- Binding Assay MT2 % Inh (MT2 receptor [1]): 85.1%
- displacement of bound [3H]melatonin (MT1 receptor [2]; b129, MT1 or MT2 receptor-expressing cells, both subtypes): 85-95%
- Binding Assay MT1 % Inh (MT1 receptor [2]; displacement of [3H]melatonin): 94.9%
- MTT Assay MT2/293 % Viability ± SEM (MT2/293): 119.5 ± 8.3%
- cAMP Assay MT2 % Inh (MT2 receptor [3]): 51.9 ± 5.6%
- cAMP Assay MT1 % Inh (MT1 receptor [4]): 48.5 ± 17.8%
- CRE-Luc Assay MT2 % Inh ± SEM of 1 μM Fsk (MT2 receptor [5]): 61.9 ± 5.0%
- MTT Assay MT1/293 % Viability ± SEM (MT1/293): 113.3 ± 7.0%
- CRE-Luc Assay MT1 % Inh ± SEM of 1 μM Fsk (MT1 receptor [6]): 73.0 ± 2.2%

Source: US8389544B2, “Isoquinolone compounds as subtype-selective agonists for melatonin receptors MT1 and MT2” (The Hong Kong University of Science and Technology, priority 2007, dated 2013)
